In patent publication US20230141403A1 (Hoffmann-La Roche Inc., priority 2020, published 2023):
Structures can show the parent of a compound that is named as a salt.

system: Acinetobacter baumannii ATCC17978; test: Antimicrobial susceptibility testing: 90% growth inhibitory concentration (IC90) determination; format: cell-based; settings: ATCC17978, 90% growth inhibitory concentration, Iso-Sensitest broth, optical density at 600 nm over 16h, 35±2° C., read-out: AB ATCC 17978 IC90
Method: Antimicrobial Susceptibility Testing:
90% Growth Inhibitory Concentration (IC90) Determination
The in vitro antimicrobial activity of the compounds was determined according to the following procedure:
The assay used a 10-points Iso-Sensitest broth medium to measure quantitatively the in vitro activity of the compounds against Acinetobacter baumannii ATCC17961 or ATCC17978.
Stock compounds in DMSO were serially twofold diluted (e.g. range from 50 to 0.097 μM final concentration) in 384 wells microtiter plates and inoculated with 49 μl the bacterial suspension in Iso-Sensitest medium to have a final cell concentration of ˜5×10^(5) CFU/ml in a final volume/well of 50 ul/well. Microtiter plates were incubated at 35±2° C.
Bacterial cell growth was determined with the measurement of optical density at λ=600 nm each 20 minutes over a time course of 16h. Growth inhibition was calculated during the logarithmic growth of the bacterial cells with determination of the concentration inhibiting 50% (IC50) and 90% (IC90) of the growth.
Table 1 provides the 90% growth inhibitory concentrations (IC90) in micromoles per liter of the compounds of present invention obtained against the strain Acinetobacter baumannii ATCC17978.

Compared with `COc1ccc(-c2cnc3c(Nc4ccc(NC(=O)CN5CCNCC5)c(C)c4)nccn23)cc1Cl` [Example 49, N-(4-((3-(3-chloro-4-methoxyphenyl)imidazo[1,2-a]pyrazin-8-yl)amino)-2-methylphenyl)-2-(piperazin-1-yl)acetamide], `CC(=O)Nc1ccc(Nc2nccn3c(-c4ccc(Cl)c(F)c4)cnc23)cc1C` [Example 84, N-(4-((3-(4-chloro-3-fluorophenyl)imidazo[1,2-a]pyrazin-8-yl)amino)-2-methylphenyl)] is 1.8-fold lower in IC90: 300 nM for the first, 170 nM for the second.

`COc1ccc(-c2cnc3c(Nc4ccc(NC(C)=O)c(CO)c4)nccn23)cc1` [Example 50, N-(2-(hydroxymethyl)-4-((3-(4-methoxyphenyl)imidazo[1,2-a]pyrazin-8-yl)amino)phenyl)acetamide] and `CNC(=O)c1cc(Nc2nccn3c(-c4ccc(OC)cc4)cnc23)ccc1Cl` [Example 76, 2-chloro-5-((3-(4-methoxyphenyl)imidazo[1,2-a]pyrazin-8-yl)amino)-N-methylbenzamide] are within 1.5-fold of each other in IC90: 630 nM for the first, 730 nM for the second.

`COc1ccc(-c2cnc3c(Nc4ccc(NC(=O)CCl)cc4)nccn23)cc1` [Example 51, 2-chloro-N-(4-((3-(4-methoxyphenyl)imidazo[1,2-a]pyrazin-8-yl)amino)phenyl)acetamide] and `C#CCOc1ccc(-c2cnc3c(Nc4ccc(NC(C)=O)cc4)nccn23)cc1` [Example 65, N-(4-((3-(4-(prop-2-yn-1-yloxy)phenyl)imidazo[1,2-a]pyrazin-8-yl)amino)phenyl)acetamide] are the same in IC90: 750 nM for the first, 750 nM for the second.

Compared with `COc1ccc(-c2cnc3c(Nc4ccc(S(C)(=O)=O)cc4)nccn23)cc1` [Example 52, 3-(4-Methoxyphenyl)-N-(4-(methylsulfonyl)phenyl)imidazo[1,2-a]pyrazin-8-amine], `COc1ccc(-c2cnc3c(Nc4ccc(S(=O)(=O)N(C)C)cc4)nccn23)cc1` [Example 77, 4-((3-(4-methoxyphenyl)imidazo[1,2-a]pyrazin-8-yl)amino)-N,N-dimethylbenzenesulfonamide] is 1.6-fold lower in IC90: 980 nM for the first, 630 nM for the second.

`CC(=O)Nc1ccc(Nc2nccn3c(-c4ccc(F)cc4)cnc23)cc1C` [Example 53, N-(4-((3-(4-fluorophenyl)imidazo[1,2-a]pyrazin-8-yl)amino)-2-methylphenyl)acetamide] and `CC(=O)Nc1ccc(Nc2nccn3c(-c4ccc(F)c(F)c4)cnc23)cc1C` [Example 85, N-(4-((3-(3,4-difluorophenyl)imidazo[1,2-a]pyrazin-8-yl)amino)-2-methylphenyl) acetamide] are within 1.5-fold of each other in IC90: 360 nM for the first, 340 nM for the second.

Going from `Cc1cc(Nc2nccn3c(-c4ccc(OC(F)F)cc4)cnc23)ccc1N1CCCC1=O` [Example 54, 1-(4-((3-(4-(difluoromethoxy)phenyl)imidazo[1,2-a]pyrazin-8-yl)amino)-2-methylphenyl)pyrrolidin-2-one] to `COc1ccc(-c2cnc3c(Nc4ccc(N5CCCC5=O)c(C)c4)nccn23)cc1` [Example 58, 1-(4-((3-(4-methoxyphenyl)imidazo[1,2-a]pyrazin-8-yl)amino)-2-methylphenyl)pyrrolidin-2-one], the IC90 falls from 720 nM to 260 nM (2.8-fold).

`CCN1CCN(CC(=O)Nc2ccc(Nc3nccn4c(-c5ccc(OC(F)F)cc5)cnc34)cc2C)CC1` [Example 55, N-(4-((3-(4-(difluoromethoxy)phenyl)imidazo[1,2-a]pyrazin-8-yl)amino)-2-methylphenyl)-2-(4-ethylpiperazin-1-yl)acetamide] and `Cc1cc(Nc2nccn3c(-c4ccc(OC(F)F)cc4)cnc23)ccc1NC(=O)CN1CCC(N)C1` (stereo not drawn) [Example 59, 2-(3-aminopyrrolidin-1-yl)-N-(4-((3-(4-(difluoromethoxy)phenyl)imidazo[1,2-a]pyrazin-8-yl)amino)-2-methylphenyl)acetamide] are within 1.5-fold of each other in IC90: 280 nM for the first, 250 nM for the second.

Going from `Cc1cc(Nc2nccn3c(-c4ccc(OC(F)F)c(F)c4)cnc23)ccc1N1CCCC1=O` [Example 56, 1-(4-((3-(4-(difluoromethoxy)-3-fluorophenyl)imidazo [1,2-a]pyrazin-8-yl)amino)-2-methylphenyl)pyrrolidin-2-one] to `O=C1CCCN1c1ccc(Nc2nccn3c(-c4ccc(OC(F)F)c(F)c4)cnc23)cc1` [Example 57, 1-(4-((3-(4-(difluoromethoxy)-3-fluorophenyl)imidazo [1,2-a]pyrazin-8-yl)amino)phenyl)pyrrolidin-2-one], the IC90 falls from 250 nM to 140 nM (1.8-fold).

`Cc1cc(Nc2nccn3c(-c4ccc(Cl)cc4)cnc23)ccc1N1CCCC1=O` [Example 60, 1-(4-((3-(4-chlorophenyl)imidazo[1,2-a]pyrazin-8-yl)amino)-2-methylphenyl)pyrrolidin-2-one] and `COc1ccc(-c2cnc3c(Nc4ccc(S(C)(=O)=O)c(Cl)c4)nccn23)cc1` [Example 81, N-(3-chloro-4-(methylsulfonyl)phenyl)-3-(4-methoxyphenyl) imidazo [1,2-a]pyrazin-8-amine] are within 1.5-fold of each other in IC90: 760 nM for the first, 630 nM for the second.

First: COc1ccc(-c2cnc3c(Nc4ccc(S(=O)(=O)NCCOCCN)c(C)c4)nccn23)cc1 [Example 61, N-(2-(2-aminoethoxy)ethyl)-4-((3-(4-methoxyphenyl)imidazo[1,2-a]pyrazin-8-yl)amino)-2-methylbenzenesulfonamide]
Second: COc1ccc(-c2cnc3c(Nc4ccc(NC(=O)COCCN)c(C)c4)nccn23)cc1 [Example 75, 2-(2-aminoethoxy)-N-(4-((3-(4-methoxyphenyl)imidazo[1,2-a]pyrazin-8-yl)amino)-2-methylphenyl)acetamide hydrochloride]
The IC90 of the first is 2.6-fold higher: 730 nM for the first, 280 nM for the second.

`COc1ccc(-c2cnc3c(Nc4ccc(S(=O)(=O)N5CCOCC5)cc4)nccn23)cc1` [Example 78, 3-(4-methoxyphenyl)-N-(4-(morpholinosulfonyl)phenyl)imidazo[1,2-a]pyrazin-8-amine] and `COc1ccc(-c2cnc3c(Nc4ccc(S(=O)(=O)N5CCN(C)CC5)cc4)nccn23)cc1` [Example 79, 3-(4-methoxyphenyl)-N-(4-((4-methylpiperazin-1 - yl)sulfonyl)phenyl) imidazo[1,2-a]pyrazin-8-amine] are within 1.5-fold of each other in IC90: 580 nM for the first, 850 nM for the second.

First: CCN(CC)C(=O)CNS(=O)(=O)c1ccc(Nc2nccn3c(-c4ccc(OC)cc4)cnc23)cc1 [Example 80, N,N-diethyl-2-(4-((3-(4-methoxyphenyl)imidazo[1,2-a]pyrazin-8-yl)amino)phenylsulfonamido) acetamide]
Second: COc1ccc(-c2cnc3c(Nc4ccc(NC(C)=O)c(C)c4)nccn23)c(Cl)c1 [Example 86, N-(4-((3-(2-chloro-4-methoxyphenyl)imidazo [1,2-a]pyrazin-8-yl)amino)-2-methylphenyl)acetamide]
The IC90 of the first is 2.9-fold higher: 760 nM for the first, 260 nM for the second.

Going from `CC(=O)Nc1ccc(Nc2nccn3c(-c4ccc(F)c(F)c4F)cnc23)cc1` [Example 82, N-(4-((3-(2,3,4-trifluorophenyl)imidazo[1,2-a]pyrazin-8-yl)amino)phenyl)acetamide] to `CC(=O)Nc1ccc(Nc2nccn3c(-c4ccc(F)c(F)c4F)cnc23)cc1C` [Example 87, N-(2-methyl-4-((3-(2,3,4-trifluorophenyl)imidazo[1,2-a]pyrazin-8-yl)amino)phenyl) acetamide], the IC90 falls from 890 nM to 260 nM (3.4-fold).

In the case of `CC(=O)Nc1ccc(Nc2nccn3c(-c4ccc(F)cc4F)cnc23)cc1C` [Example 83, N-(4-((3-(2,4-difluorophenyl)imidazo[1,2-a]pyrazin-8-yl)amino)-2-methylphenyl)acetamide], the IC90 is reported as 700 nM.
